Results: patent US9884843B2 (Peloton Therapeutics, Inc., priority 2013, dated 2018)
Like-named read-outs stand apart in the source and are kept apart here.

Biological target: HIF-2α HIS TAG-PASB Domain (Homo sapiens, UniProt Q99814)
Test: biochemical
Type: binding
Excerpt: The term “scintillation proximity assay” (SPA) refers to a homogenous assay in which light is emitted when a radiolabeled ligand is brought into close proximity to a radiosensitive bead. The assay typically contains a target protein that contains a tag (e.g., His Tag, Glutathione S-transferase Tag). The tag on the protein is used to bind the target protein to the scintillation bead. Radiolabeled ligand (e.g., labeled with tritium) that binds to the protein is now in close proximity to the bead, and when the raidolabel (e.g., tritium) decays, the high energy particle hits the bead resulting in the emission of light that is detected by a detector, such as photomultiplier tube or CCD camera. When unlabeled ligands or compounds that bind to the protein are used in the assay, they displace the radiolabeled ligand, resulting in loss of signal.
The total assay volume was about 100 μL in the following configuration: 2-μL compound in DMSO, 88 μL buffer with protein and probe and 10 μL of SPA beads. […] To each compound, 88 μL of the buffer solution was then added. […] The percent inhibition was determined and IC50 values were calculated using the Dotmatics system based on the following equation: % inhibition=[(high control−sample)/(high control−low control)]×100.

[1] = unnumbered compounds listed by structure and name, read-out: IC50 value in SPA
[2] = displacement of Compound 120 probe, mean, read-out: Mean SPA IC50

HIF-2α HIS TAG-PASB Domain, sequence (Q99814 whole entry, looked up, the tested form may be a part): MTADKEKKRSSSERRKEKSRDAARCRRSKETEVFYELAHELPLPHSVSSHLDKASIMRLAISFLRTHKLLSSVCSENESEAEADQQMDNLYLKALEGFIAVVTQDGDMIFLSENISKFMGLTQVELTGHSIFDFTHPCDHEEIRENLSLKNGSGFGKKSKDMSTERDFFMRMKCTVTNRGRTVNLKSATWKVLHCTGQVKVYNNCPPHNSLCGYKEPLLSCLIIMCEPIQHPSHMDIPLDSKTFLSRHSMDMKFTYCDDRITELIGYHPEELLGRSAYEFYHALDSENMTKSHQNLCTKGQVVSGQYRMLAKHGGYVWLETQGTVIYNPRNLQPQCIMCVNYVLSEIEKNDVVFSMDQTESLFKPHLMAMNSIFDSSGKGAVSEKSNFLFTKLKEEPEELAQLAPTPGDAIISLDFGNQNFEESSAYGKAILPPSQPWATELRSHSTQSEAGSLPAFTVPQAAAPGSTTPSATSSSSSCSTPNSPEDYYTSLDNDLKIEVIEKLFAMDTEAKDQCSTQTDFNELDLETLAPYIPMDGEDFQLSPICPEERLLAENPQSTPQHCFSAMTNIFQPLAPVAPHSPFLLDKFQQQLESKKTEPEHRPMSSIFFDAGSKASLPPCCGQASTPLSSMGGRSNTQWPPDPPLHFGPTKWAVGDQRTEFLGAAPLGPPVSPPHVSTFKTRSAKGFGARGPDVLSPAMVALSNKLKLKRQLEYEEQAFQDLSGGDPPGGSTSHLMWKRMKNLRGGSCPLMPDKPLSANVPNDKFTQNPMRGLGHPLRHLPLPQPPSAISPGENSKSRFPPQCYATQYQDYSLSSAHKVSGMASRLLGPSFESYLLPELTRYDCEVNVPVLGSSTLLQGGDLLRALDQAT

IC50 [1] [µM] | IC50 [2] [µM] | SMILES | other results
25 to 100 | – | N#Cc1cc(F)cc(Oc2ccc3c(c2Cl)C(=O)C(F)(F)S3(=O)=O)c1 [3-(4-chloro-2,2-difluoro-1,1,3-trioxo-benzothiophen-5-yl)oxy-5-fluoro-benzonitrile] | –
25 to 100 | – | N#Cc1cccc(Oc2ccc3c(c2C(F)F)C(=O)C(F)(F)S3(=O)=O)c1 [3-[4-(difluoromethyl)-2,2-difluoro-1,1,3-trioxo-benzothiophen-5-yl]oxybenzonitrile] | –
> 100 | – | N#Cc1cc(F)cc(Oc2ccc3c(c2C#CCO)C(O)C(F)(F)S3(=O)=O)c1 (stereo not shown) [3-[[2,2-difluoro-3-hydroxy-4-(3-hydroxyprop-1-ynyl)-1,1-dioxo-3H-benzothiophen-5-yl]oxy]-5-fluoro-benzonitrile] | –
> 100 | – | O=C1c2c(ccc(Oc3ccc(F)c(F)c3)c2C(F)F)S(=O)(=O)C1(F)F [4-(difluoromethyl)-5-(3,4-difluorophenoxy)-2,2-difluoro-1,1-dioxo-benzothiophen-3-one] | –
> 100 | – | O=C1CS(=O)(=O)c2ccc(Oc3cc(F)cc(F)c3)c(Br)c21 [4-bromo-5-(3,5-difluorophenoxy)-1,1-dioxo-benzothiophen-3-one] | –
> 100 | – | N=S1(=O)CC(=O)c2c1ccc(Oc1cc(F)cc(F)c1)c2Br (stereo not shown) [4-bromo-5-(3,5-difluorophenoxy)-1-imino-1-oxo-benzothiophen-3-one] | –
25 to 100 | – | O=S1(=O)c2ccc(Oc3cc(F)cc(Cl)c3)c(Br)c2C(O)C12CC2 (stereo not shown) [4-bromo-5-(3-chloro-5-fluoro-phenoxy)-1,1-dioxo-spiro[3H-benzothiophene-2,1′-cyclopropane]-3-ol] | –
25 to 100 | – | N#Cc1cc(Oc2ccc3c(c2C(F)F)C(=O)C(F)(F)S3(=O)=O)ccc1F [5-[4-(difluoromethyl)-2,2-difluoro-1,1,3-trioxo-benzothiophen-5-yl]oxy-2-fluoro-benzonitrile] | –
> 100 | – | O=S1(=O)c2ccc(Oc3cc(F)cc(F)c3)c(Br)c2[C@@H](O)C1F (stereo partly drawn) [(3R)-4-bromo-5-(3,5-difluorophenoxy)-2-fluoro-1,1-dioxo-2,3-dihydrobenzothiophen-3-ol] | –
– | 0.007 | N#Cc1cc(F)cc(Oc2ccc3c(c2Br)[C@@H](O)C(F)(F)S3(=O)=O)c1 [Compound 1, (R)-3-((4-bromo-2,2-difluoro-3-hydroxy-1,1-dioxido-2,3-dihydrobenzo[b]thiophen-5-yl)oxy)-5-fluorobenzonitrile] | –
– | 0.047 | N#Cc1c(Oc2cc(F)cc(Cl)c2)ccc2c1[C@@H](O)CS2(=O)=O [Compound 2, (3R)-5-(3-Chloro-5-fluoro-phenoxy)-3-hydroxy-1,1-dioxo-2,3-dihydrobenzothiophene-4-carbonitrile] | –
– | 4.41 | O=S1(=O)CCc2c1ccc(Oc1cc(F)cc(Cl)c1)c2Br [Compound 4, 4-Bromo-5-(3-chloro-5-fluorophenoxy)-2,3-dihydrobenzo[b]thiophene 1,1-dioxide] | –
– | 4.86 | N#Cc1c(Oc2cc(F)cc(Cl)c2)ccc2c1CCS2(=O)=O [Compound 5, 5-(3-Chloro-5-fluorophenoxy)-2,3-dihydrobenzo[b]thiophene-4-carbonitrile 1,1-dioxide] | –
– | 1.41 | O=C1c2c(ccc(Oc3cc(F)cc(Cl)c3)c2Br)S(=O)(=O)C1(F)F [Compound 8, 4-Bromo-5-(3-chloro-5-fluorophenoxy)-2,2-difluorobenzo[b]thiophen-3(2H)-one 1,1-dioxide] | –
– | 11.8 | NC1CS(=O)(=O)c2ccc(Oc3cc(F)cc(F)c3)c(C(F)F)c21 (stereo not shown) [Compound 21] | –
– | 5.84 | N#Cc1cc(F)cc(Oc2ccc3c(c2C(F)F)C(=N)C(F)S3(=O)=O)c1 (stereo not shown) [Compound 27, 3-((4-(difluoromethyl)-2-fluoro-3-imino-1,1-dioxido-2,3-dihydrobenzo[b]thiophen-5-yl)oxy)-5-fluorobenzonitrile] | –
– | 0.17 | N#CN=S1(=O)c2ccc(Oc3cc(F)cc(F)c3)c(Cl)c2[C@@H](O)C1(F)F (stereo partly drawn) [Compound 66, N-((3R)-4-Chloro-5-(3,5-difluorophenoxy)-2,2-difluoro-3-hydroxy-1-oxido-2,3-dihydro-1λ^4-benzo[b]thiophen-1-ylidene)cyanamide] | –
– | 0.12 | O=S1(=O)c2ccc(Oc3cncc(Cl)c3)c(Br)c2[C@@H](O)C1(F)F [Compound 75, (R)-4-bromo-5-((5-chloropyridin-3-yl)oxy)-2,2-difluoro-3-hydroxy-2,3-dihydrobenzo[b]thiophene 1,1-dioxide] | –
– | 0.31 | O=S1(=O)c2ccc(Oc3cncc(F)c3)c(Br)c2[C@@H](O)C1(F)F [Compound 77, (R)-4-bromo-2,2-difluoro-5-((5-fluoropyridin-3-yl)oxy)-3-hydroxy-2,3-dihydrobenzo[b]thiophene 1,1-dioxide] | –
– | 2.93 | Cc1cncc(Oc2ccc3c(c2Br)[C@@H](O)C(F)(F)S3(=O)=O)c1 [Compound 82, (R)-4-bromo-2,2-difluoro-3-hydroxy-5-((5-methylpyridin-3-yl)oxy)-2,3-dihydrobenzo[b]thiophene 1,1-dioxide] | –
– | 0.38 | O=S1(=O)c2ccc(Oc3cncc(Cl)c3)c(Cl)c2[C@@H](O)C1(F)F [Compound 86, (R)-4-Chloro-5-((5-chloropyridin-3-yl)oxy)-2,2-difluoro-3-hydroxy-2,3-dihydrobenzo[b]thiophene 1,1-dioxide] | –

More lines, now with the values behind:

SMILES | IC50 [1] [µM] | IC50 [2] [µM] | other results
N#Cc1cc(F)cc(Oc2ccc3c(c2C(F)F)C(NCC(F)F)CS3(=O)=O)c1 (stereo not shown) [3-[[3-(2,2-difluoroethylamino)-4-(difluoromethyl)-1,1-dioxo-2,3-dihydrobenzothiophen-5-yl]oxy]-5-fluoro-benzonitrile] | > 100 | – | –
N#CCNC1CS(=O)(=O)c2ccc(Oc3cc(F)cc(C#N)c3)c(C(F)F)c21 (stereo not shown) [3-[[3-(cyanomethylamino)-4-(difluoromethyl)-1,1-dioxo-2,3-dihydrobenzothiophen-5-yl]oxy]-5-fluoro-benzonitrile] | > 100 | – | –
CO/C(=C/C(F)F)c1c(Oc2cc(F)cc(C#N)c2)ccc2c1C(O)C(F)(F)S2(=O)=O (stereo not shown) [3-[[4-[(E)-3,3-difluoro-1-methoxy-prop-1-enyl]-2,2-difluoro-3-hydroxy-1,1-dioxo-3H-benzothiophen-5-yl]oxy]-5-fluoro-benzonitrile] | 25 to 100 | – | –
N#Cc1cc(F)cc(Oc2ccc3c(c2C(F)F)C(NCCC(=O)O)C(F)(F)S3(=O)=O)c1 (stereo not shown) [3-[[5-(3-cyano-5-fluoro-phenoxy)-4-(difluoromethyl)-2,2-difluoro-1,1-dioxo-3H-benzothiophen-3-yl]amino]propanoic acid] | > 100 | – | –
N#Cc1cc(F)cc(Oc2ccc3c(c2CF)C(O)CS3(=O)=O)c1 (stereo not shown) [3-fluoro-5-[[4-(fluoromethyl)-3-hydroxy-1,1-dioxo-2,3-dihydrobenzothiophen-5-yl]oxy]benzonitrile] | 25 to 100 | – | –
NC1c2c(ccc(OC3CCOCC3)c2C(F)F)S(=O)(=O)C1(F)F (stereo not shown) [4-(difluoromethyl)-2,2-difluoro-1,1-dioxo-5-tetrahydropyran-4-yloxy-3H-benzothiophen-3-amine] | 25 to 100 | – | –
O=C1CS(=O)(=O)c2ccc(Oc3ccc(F)c(F)c3)c(C(F)F)c21 [4-(difluoromethyl)-5-(3,4-difluorophenoxy)-1,1-dioxo-benzothiophen-3-one] | > 100 | – | –
N#Cc1c(Oc2cc(F)cc(F)c2)ccc2c1C(O)CS2(=N)=O (stereo not shown) [5-(3,5-difluorophenoxy)-3-hydroxy-1-imino-2,3-dihydro-1H-1λ^4-benzo[b]thiophene-4-carbonitrile 1-oxide] | > 100 | – | –
N#Cc1cncc(Oc2ccc3c(c2C#N)[C@@H](O)CS3(=O)=O)c1 [5-[[(3R)-4-cyano-3-hydroxy-1,1-dioxo-2,3-dihydrobenzothiophen-5-yl]oxy]pyridine-3-carbonitrile] | 25 to 100 | – | –
O=S1(=O)C[C@H](O)c2c1ccc(Oc1cncc(Cl)c1)c2Br [(3R)-4-bromo-5-[(5-chloro-3-pyridyl]oxy]-1,1-dioxo-2,3-dihydrobenzothiophen-3-ol] | > 100 | – | –
O=S1(=O)C[C@H](O)c2c1ccc(Oc1cncc(F)c1)c2Br [(3R)-4-bromo-5-[(5-fluoro-3-pyridyl)oxy]-1,1-dioxo-2,3-dihydrobenzothiophen-3-ol] | > 100 | – | –
N#Cc1c(Oc2cncc(Cl)c2)ccc2c1[C@@H](O)CS2(=O)=O [(3R)-5-[(5-chloro-3-pyridyl)oxy]-3-hydroxy-1,1-dioxo-2,3-dihydrobenzothiophene-4-carbonitrile] | 25 to 100 | – | –
N#Cc1c(Oc2cncc(F)c2)ccc2c1[C@@H](O)CS2(=O)=O [(3R)-5-[(5-fluoro-3-pyridyl)oxy]-3-hydroxy-1,1-dioxo-2,3-dihydrobenzothiophene-4-carbonitrile] | 25 to 100 | – | –
NC1c2c(ccc(Oc3cc(F)cc(F)c3)c2C(F)F)S(=O)(=O)C1F (stereo not shown) [Compound 20, 3-amino-4-(difluoromethyl)-5-(3,5-difluorophenoxy)-2-fluoro-2,3-dihydrobenzo[b]thiophene 1,1-dioxide] | – | 1.54 | –
O=S1(=O)c2ccc(OC3CCOCC3)c(C(F)F)c2C(O)C1(F)F (stereo not shown) [Compound 54, 4-(Difluoromethyl)-2,2-difluoro-3-hydroxy-5-((tetrahydro-2H-pyran-4-yl)oxy)-2,3-dihydrobenzo[b]thiophene 1,1-dioxide] | – | 1.92 | –
COc1cc(F)cc(Oc2ccc3c(c2C#N)[C@@H](O)C(F)(F)S3(=O)=O)c1 [Compound 81, (R)-2,2-difluoro-5-(3-fluoro-5-methoxyphenoxy)-3-hydroxy-2,3-dihydrobenzo[b]thiophene-4-carbonitrile 1,1-dioxide] | – | – | IC50: 0.067 µM
